The text below walks through data of US20190322676A1, “CERAMIDE GALACTOSYLTRANSFERASE INHIBITORS FOR THE TREATMENT OF DISEASE” (BioMarin Pharmaceutical Inc., priority 2016, published 2019).

The term pIC50 denotes the IC50 on a negative log10 scale, so that one unit is a factor of ten.

pIC50: −log10 of the molar value. Counter-ions that a name gives are not always drawn.

The target in this assay is T1, human CGT (ceramide galactosyltransferase), CHO/CGT lysate (Homo sapiens, UniProt Q16880).
T1 construct: Full-length human CGT cDNA was cloned into the BamH1/Xho1 site of pcDNA3.1 (+); expressed in transfected cells; host or cells: Chinese hamster ovary (CHO) cells; lysate prepared with M-PER
T1 sequence (Q16880 21-541): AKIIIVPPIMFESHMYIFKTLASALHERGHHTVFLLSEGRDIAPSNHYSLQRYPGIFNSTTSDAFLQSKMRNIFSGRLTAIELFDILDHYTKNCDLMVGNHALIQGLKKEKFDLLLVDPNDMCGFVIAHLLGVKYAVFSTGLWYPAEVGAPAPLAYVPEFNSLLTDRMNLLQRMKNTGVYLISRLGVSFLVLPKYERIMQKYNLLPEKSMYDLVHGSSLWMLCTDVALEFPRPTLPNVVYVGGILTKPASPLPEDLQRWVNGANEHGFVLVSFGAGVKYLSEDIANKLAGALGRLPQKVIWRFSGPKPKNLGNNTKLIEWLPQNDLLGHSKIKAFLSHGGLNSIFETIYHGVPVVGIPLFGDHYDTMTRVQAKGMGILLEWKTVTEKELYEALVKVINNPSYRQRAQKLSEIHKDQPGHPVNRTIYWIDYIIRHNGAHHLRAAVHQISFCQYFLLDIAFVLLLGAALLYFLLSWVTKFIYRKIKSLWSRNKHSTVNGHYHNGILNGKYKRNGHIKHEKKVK
The assay is described as follows: CGT enzyme assay, LC-MS/MS readout (Table 1 ranges without asterisk). The format is biochemical. The settings on record: LC-MS/MS method (range without asterisk). The procedure: Full-length human CGT cDNA was cloned into the BamH1/Xho1 site of pcDNA3.1 (+) mammalian expression vector (V90-20, Invitrogen, Carlsbad, Calif.) and the plasmid was transfected into Chinese hamster ovary (CHO) cells. Lysate was prepared using M-PER (Mammalian Protein Extraction Reagent, ThermoFisher Scientific, Grand Island, N.Y.) in the presence of a protease inhibitor cocktail (P8340, Sigma, Saint Louis, Mo.). Each 100 mm dish (100% confluent, approximately 1×10^7 cells) was lysed with 250 μL of M-PER containing protease inhibitors. Protein concentration was determined using a Pierce BCA protein assay kit (ThermoFisher Scientific). Four micrograms of CHO/CGT lysate was incubated with various concentrations of a compound (0.001 μM-50 μM) in 10 mM HEPES (pH 7.2) containing 35 μM dioleoylphosphatidylcholine, 5 mM MgCl2, 5 mM MnCl2, 1% BSA, 15 mM KCl, 1 mM EGTA, 8 mM CHAPS, 10 μM C6-NBD-dihydro-ceramide and 17.5 μM UDP-galactose in a final reaction volume of 20 μL at 37° C. for 1 hour. The final concentration of DMSO was 0.5% in both compound-treated and mock-treated samples. Tween 80 (0.01%) was optionally added to the reaction mixture to help solubilize the compounds. Each individual reaction was diluted with 80 μL of methanol:acetronitrile (1:3) containing 5 μM N-docdecanoyl-NBD-galactosylceramide (internal standard) to stop the reaction. 200 μL H2O:acetonitile (1:1) was added to precipitate the protein. After sufficient mixing, the plates were centrifuged at 2469 g for 38 minutes, 200 μL of supernatant was transferred to a LC/MS 96-deep well plate and a second spin was performed at 2469 g for 10 minutes. The final supernatant was injected in triplicate for RapidFire/MS/MS analysis.
An alternative LC-MS/MS based method was also used. For the LC-MS/MS readout, the CGT assay was identical to the one described above except for the following: […] was used as the CGT enzyme source, C12:0 (2R—OH) ceramide was used as the ceramide substrate and 0.3 μM Cl2 ceramide was used as the internal standard. Tween 80 was not present in the reaction mixture. The final supernatant was injected for LC-MS/MS analysis.
Quantitative analysis using the LC-MS/MS method: The quantitative analysis of C12:0 (2R—OH) ceramide and C12:0 (2R—OH) galactosylceramide by LC-MS/MS was performed on a Shimadzu ultra-fast liquid chromatography (Shimadzu, Japan) coupled with API 4000 mass spectrometer (Applied Biosystems, Concord, Ontario, Canada). Analyst 1.5 software packages (Applied Biosystems) were used to control the LC-MS/MS system, as well as for data acquisition and processing. 10 μL of sample was loaded onto a Luna C18 column (50 mm×2.0 mm, I.D. 3 μm, 100A) (Phenomenex, USA) for chromatographic separation. Mobile phase A consisted of HPLC grade water with 0.1% formic acid (v/v) and mobile phase B consisted of acetonitrile supplemented with 0.1% formic acid (v/v). The separation was achieved using the following gradient program at a flow rate of 0.8 mL/min: the initial mobile phase was 70% B, which was increased in a linear fashion to 95% B in 1.50 min, and then maintained at 95% B until 3.50 min. The mobile phase was then reset to 70% B within 0.01 min, and maintained until 4.50 min. The total run time was 4.50 min. The MS/MS detection was performed in ESI positive mode. The mass transition selected for quantification was m/z 498.5-264.3 for C12:0 (2R—OH) ceramide under the collision energy of 38.8 V, and the mass transition of C12:0 (2R—OH) galactosylceramide was m/z 660.6-264.5 under the collision energy of 51 V. The mass transition of Cl2 ceramide which was used as internal standard was m/z 482.4-264.3 under the collision energy of 33V. Compound IC50 values were calculated using a protocol identical to the one described for the RapidFire method (see Table 1, where data ranges without an asterix correspond to analysis using the LC-MS/MS method).
Using the above CGT enzyme and CGT cellular assays, the compounds of Table 1 were tested. […]
As to `NC1CC2CCC(C1)N2C(=O)[C@@H](NS(=O)(=O)c1ccc(OCc2ccccc2)cc1)C(F)(F)c1ccc(Br)cc1` (stereo partly drawn) [Compound 11-1, N-((2R)-3-(3-amino-8-azabicyclo[3.2.1]octan-8-yl)-1-(4-bromophenyl)-1,1-difluoro-3-oxopropan-2-yl)-4-(benzyloxy)benzenesulfonamide trifluoroacetate], the pIC50 was 4.52 to 5.00.

As for `NC1CC2CCC(C1)N2C(=O)[C@H](NS(=O)(=O)c1ccc(OCc2ccccc2)cc1)C(F)(F)c1ccc(Br)cc1` (stereo partly drawn) [Compound 11-2, N-((2S)-3-(3-amino-8-azabicyclo[3.2.1]octan-8-yl)-1-(4-bromophenyl)-1,1-difluoro-3-oxopropan-2-yl)-4-(benzyloxy)benzenesulfonamide trifluoroacetate], the pIC50 is 4.00 to 4.52.

Turning to `NC1CC2CCC(C1)N2C(=O)[C@@H](NS(=O)(=O)c1ccc(OCC2CCCCC2)cc1)C(F)(F)c1ccc(Br)cc1` (stereo partly drawn) [Compound 12-1, N-((2R)-3-(3-amino-8-azabicyclo[3.2.1]octan-8-yl)-1-(4-bromophenyl)-1,1-difluoro-3-oxopropan-2-yl)-4-(cyclohexylmethoxy)benzenesulfonamide trifluoroacetate], the pIC50 was 4.52 to 5.00.

Regarding `CC[C@@H](C)Oc1ccc2cc(S(=O)(=O)N[C@H](C(=O)N3C4CCC3CC(N)C4)C(F)(F)c3ccc(Br)cc3)ccc2c1` (stereo partly drawn) [Compound 13-1, N-((2R)-3-(3-amino-8-azabicyclo[3.2.1]octan-8-yl)-1-(4-bromophenyl)-1,1-difluoro-3-oxopropan-2-yl)-6-((R)-sec-butoxy)naphthalene-2-sulfonamide], the pIC50 was 5.00 to 6.00.

On to `CC[C@H](C)Oc1ccc2cc(S(=O)(=O)N[C@@H](C(=O)N3C4CCC3CC(N)C4)C(F)(F)c3ccc(Br)cc3)ccc2c1` (stereo partly drawn) [Compound 13-2, N-((2S)-3-(3-amino-8-azabicyclo[3.2.1]octan-8-yl)-1-(4-bromophenyl)-1,1-difluoro-3-oxopropan-2-yl)-6-((S)-sec-butoxy)naphthalene-2-sulfonamide], for which the pIC50 is 4.52 to 5.00.

For the molecule `CC[C@H](C)Oc1ccc2cc(S(=O)(=O)N[C@H](C(=O)N3C4CCC3CC(N)C4)C(F)(F)c3ccc(Br)cc3)ccc2c1` (stereo partly drawn) [Compound 13-3, N-((2R)-3-(3-amino-8-azabicyclo[3.2.1]octan-8-yl)-1-(4-bromophenyl)-1,1-difluoro-3-oxopropan-2-yl)-6-((S)-sec-butoxy)naphthalene-2-sulfonamide], the pIC50 was 5.00 to 6.00.

As for `CC[C@@H](C)Oc1ccc2cc(S(=O)(=O)N[C@@H](C(=O)N3C4CCC3CC(N)C4)C(F)(F)c3ccc(Br)cc3)ccc2c1` (stereo partly drawn) [Compound 13-4, N-((2S)-3-(3-amino-8-azabicyclo[3.2.1]octan-8-yl)-1-(4-bromophenyl)-1,1-difluoro-3-oxopropan-2-yl)-6-((R)-sec-butoxy)naphthalene-2-sulfonamide], the negative-log IC50 (pIC50) was 4.52 to 5.00.

As to `NC1CC2CCC(C1)N2C(=O)C(NC(=O)C(=O)c1ccc(-c2ccc(F)cc2)cn1)C(F)(F)c1ccc(Br)cc1` (stereo not drawn) [Compound 14, N-(3-(3-amino-8-azabicyclo[3.2.1]octan-8-yl)-1-(4-bromophenyl)-1,1l-difluoro-3-oxopropan-2-yl)-2-(5-(4-fluorophenyl)pyridin-2-yl)-2-oxoacetamide trifluoroacetate], the pIC50 is 4.00 to 4.52.

On to `NC1CC2CCC(C1)N2C(=O)[C@@H](NS(=O)(=O)c1ccc(OCc2ccc(Cl)cc2)cc1)C(F)(F)c1ccc(Br)cc1` (stereo partly drawn) [Compound 15-1, N-((2R)-3-(3-amino-8-azabicyclo[3.2.1]octan-8-yl)-1-(4-bromophenyl)-1,1-difluoro-3-oxopropan-2-yl)-4-((4-chlorobenzyl)oxy)benzenesulfonamide trifluoroacetate], for which the pIC50 is 5.00 to 6.00.

In the case of `NC1CC2CCC(C1)N2C(=O)[C@H](NS(=O)(=O)c1ccc(OCc2ccc(Cl)cc2)cc1)C(F)(F)c1ccc(Br)cc1` (stereo partly drawn) [Compound 15-2, N-((2S)-3-(3-amino-8-azabicyclo[3.2.1]octan-8-yl)-1-(4-bromophenyl)-1,1-difluoro-3-oxopropan-2-yl)-4-((4-chlorobenzyl)oxy) benzenesulfonamide trifluoroacetate], the pIC50 is 4.00 to 4.52.

In the case of `CC(C)c1ccc2cc(S(=O)(=O)N[C@H](C(=O)N3C4CCC3CC(N)C4)C(F)(F)c3ccc(Br)cc3)ccc2c1` (stereo partly drawn) [Compound 16-1, N-((2R)-3-(3-amino-8-azabicyclo[3.2.1]octan-8-yl)-1-(4-bromophenyl)-1,1-difluoro-3-oxopropan-2-yl)-6-isopropylnaphthalene-2-sulfonamide trifluoroacetate], the negative-log IC50 (pIC50) is 5.00 to 6.00.

For `CC(C)c1ccc2cc(S(=O)(=O)N[C@@H](C(=O)N3C4CCC3CC(N)C4)C(F)(F)c3ccc(Br)cc3)ccc2c1` (stereo partly drawn) [Compound 16-2, N-((2S)-3-(3-amino-8-azabicyclo[3.2.1]octan-8-yl)-1-(4-bromophenyl)-1,1-difluoro-3-oxopropan-2-yl)-6-isopropylnaphthalene-2-sulfonamide trifluoroacetate], the pIC50 was 4.00 to 4.52.

Turning to `NC1CC2CCC(C1)N2C(=O)[C@@H](NS(=O)(=O)c1cccc(OCc2ccc(F)cc2)c1)C(F)(F)c1ccc(Br)cc1` (stereo partly drawn) [Compound 17-1, N-((2R)-3-(3-amino-8-azabicyclo[3.2.1]octan-8-yl)-1-(4-bromophenyl)-1,1-difluoro-3-oxopropan-2-yl)-3-((4-fluorobenzyl)oxy)benzenesulfonamide trifluoroacetate], the pIC50 was 4.00 to 4.52.

The molecule `NC1CC2CCC(C1)N2C(=O)[C@H](NS(=O)(=O)c1cccc(OCc2ccc(F)cc2)c1)C(F)(F)c1ccc(Br)cc1` (stereo partly drawn) [Compound 17-2, N-((2S)-3-(3-amino-8-azabicyclo[3.2.1]octan-8-yl)-1-(4-bromophenyl)-1,1-difluoro-3-oxopropan-2-yl)-3-((4-fluorobenzyl)oxy) benzenesulfonamide trifluoroacetate] showed a pIC50 of 4.00 to 4.52.

In turn, `NC1CC2CCC(C1)N2C(=O)[C@@H](NS(=O)(=O)c1ccc(Oc2ccc(Cl)cn2)cc1)C(F)(F)c1ccc(Br)cc1` (stereo partly drawn) [Compound 18-1, N-((2R)-3-(3-amino-8-azabicyclo[3.2.1]octan-8-yl)-1-(4-bromophenyl)-1,1-difluoro-3-oxopropan-2-yl)-4-((5-chloropyridin-2-yl)oxy)benzenesulfonamide trifluoroacetate] had a pIC50 of 4.52 to 5.00.
